Source: US20250152585A1, “PHARMACEUTICAL COMPOUND” (Duke Street Bio Limited, priority 2022, published 2025)
Like-named read-outs stand apart in the source and are kept apart here.

How the values were obtained:
[1] = molecular target: T1, full length N-terminally FLAG-tagged PARP1 (Homo sapiens, UniProt P09874); assay: PARP1 probe displacement HTRF assay; settings: for Selectivity: PARP1 over PARP2, ratio Kd (PARP2)/Kd (PARP1); for Kd: binned Kd
[2] = molecular target: T2, N-terminally FLAG-tagged PARP2 (amino acids 1-583) (Homo sapiens, UniProt Q9UGN5); assay: PARP2 probe displacement HTRF assay; type: binding; settings: binned Kd
T2 construct: N-terminally FLAG-tagged PARP2 (amino acids 1-583)
Protocol: Data analysis was performed identical as for PARP1.

[3] = molecular target: T1, full length N-terminally FLAG-tagged PARP1; assay: PARP1 biochemical DELFIA assay (auto-PARylation); set-up: recombinant full length human N-terminally FLAG-tagged PARP1
[4] = read-out: PARP1 HTRF, PARP1 probe displacement HTRF
[5] = binned IC50, PARP1 biochemical DELFIA assay
[6] = read-out: PARP1 HTRF, probe displacement HTRF
[7] = binned IC50, biochemical auto-PARylation assay
[8] = PARP1 HTRF, PARP1 probe displacement HTRF

T2 sequence (Q9UGN5 whole entry, the tested form may be a part): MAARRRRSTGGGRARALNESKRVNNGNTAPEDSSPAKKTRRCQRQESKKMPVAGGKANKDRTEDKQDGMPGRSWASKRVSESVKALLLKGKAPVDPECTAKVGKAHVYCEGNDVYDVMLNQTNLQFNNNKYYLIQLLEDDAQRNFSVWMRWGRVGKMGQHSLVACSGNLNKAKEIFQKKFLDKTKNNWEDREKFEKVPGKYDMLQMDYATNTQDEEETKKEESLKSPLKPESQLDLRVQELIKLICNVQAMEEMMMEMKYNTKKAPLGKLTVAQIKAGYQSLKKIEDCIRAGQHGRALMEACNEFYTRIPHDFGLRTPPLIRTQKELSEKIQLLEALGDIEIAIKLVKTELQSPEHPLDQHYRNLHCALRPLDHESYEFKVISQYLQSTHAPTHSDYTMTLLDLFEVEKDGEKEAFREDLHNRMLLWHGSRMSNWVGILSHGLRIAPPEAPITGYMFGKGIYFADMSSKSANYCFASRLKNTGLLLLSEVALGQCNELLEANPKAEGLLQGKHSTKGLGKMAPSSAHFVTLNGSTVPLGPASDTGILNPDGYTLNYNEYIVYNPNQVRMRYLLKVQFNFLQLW
T1 sequence (P09874 whole entry, the tested form may be a part): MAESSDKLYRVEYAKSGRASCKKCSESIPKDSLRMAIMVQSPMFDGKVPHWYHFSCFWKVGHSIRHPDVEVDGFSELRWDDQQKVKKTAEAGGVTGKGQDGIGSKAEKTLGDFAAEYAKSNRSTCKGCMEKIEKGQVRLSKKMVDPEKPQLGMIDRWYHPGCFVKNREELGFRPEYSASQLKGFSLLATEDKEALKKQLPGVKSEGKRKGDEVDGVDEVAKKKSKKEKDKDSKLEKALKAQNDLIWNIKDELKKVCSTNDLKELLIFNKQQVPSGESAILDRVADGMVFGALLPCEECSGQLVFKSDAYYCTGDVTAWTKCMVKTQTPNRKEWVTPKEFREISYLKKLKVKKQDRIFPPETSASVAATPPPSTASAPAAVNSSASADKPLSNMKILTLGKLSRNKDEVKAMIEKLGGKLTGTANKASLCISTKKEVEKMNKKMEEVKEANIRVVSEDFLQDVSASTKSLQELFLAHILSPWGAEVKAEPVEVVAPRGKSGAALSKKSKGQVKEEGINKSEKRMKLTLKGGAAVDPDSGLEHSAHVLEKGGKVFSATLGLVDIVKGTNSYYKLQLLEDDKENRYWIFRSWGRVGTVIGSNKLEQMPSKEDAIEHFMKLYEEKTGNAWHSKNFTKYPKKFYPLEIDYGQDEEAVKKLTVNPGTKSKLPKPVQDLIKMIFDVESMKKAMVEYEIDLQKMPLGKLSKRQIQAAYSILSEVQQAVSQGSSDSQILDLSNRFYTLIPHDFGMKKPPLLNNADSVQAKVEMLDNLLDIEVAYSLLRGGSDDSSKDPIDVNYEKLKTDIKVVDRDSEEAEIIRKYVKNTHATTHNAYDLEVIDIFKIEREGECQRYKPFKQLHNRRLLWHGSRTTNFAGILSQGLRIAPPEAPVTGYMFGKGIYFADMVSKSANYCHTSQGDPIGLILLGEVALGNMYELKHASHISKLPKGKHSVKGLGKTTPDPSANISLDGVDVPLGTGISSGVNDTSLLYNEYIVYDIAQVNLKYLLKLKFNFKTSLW

CCNC(=O)c1ccc(N2CCC(N3CCC(c4ccc(CC)c(=O)[nH]4)C3)CC2)cn1 (racemic) [Compound 171rac]
Selectivity ([1]; probe displacement HTRF): +++ (+++ indicate a value of at least 100)
Kd [1, 4]: < 10 nM
Kd ([2]; PARP2 probe displacement HTRF): 100 to 1000 nM
IC50 [3, 5]: < 10 nM

CNC(=O)c1ccc(N2CCC(N3CCC(c4cc5cccc(OC)c5c(=O)[nH]4)C3)CC2)cn1 (single isomer, unassigned) [Compound 249b]
Selectivity ([1]; probe displacement HTRF): + (+ indicates a value of 10 to less than 50)
Kd [1, 6]: 100 to 1000 nM
Kd ([2]; probe displacement HTRF): > 10000 nM
IC50 [3, 7]: 100 to 1000 nM

CNC(=O)c1cc(C)c(N2CCC(N3CCC(c4cc5ccccc5c(=O)[nH]4)C3)CC2)cn1 (racemic) [Compound 195rac]
Selectivity ([1]; probe displacement HTRF): +++ (+++ indicate a value of at least 100)
Kd [1, 4]: < 10 nM
Kd ([2]; PARP2 probe displacement HTRF): 100 to 1000 nM
IC50 [3, 5]: < 10 nM

CCc1cnc(C2CCCN(CC3CCN(c4ccc(C(=O)NC)nc4)CC3)C2)[nH]c1=O (racemic) [Compound 39rac]
Selectivity ([1]; probe displacement HTRF): + (+ indicates a value of 10 to less than 50)
Kd [1, 4]: 100 to 1000 nM
Kd ([2]; PARP2 probe displacement HTRF): > 10000 nM
IC50 [3, 5]: 100 to 1000 nM

CCc1ccc(C2CCN(C3CCN(c4ccc(C(=O)NC)nc4C)CC3)C2)[nH]c1=O (single isomer, unassigned) [Compound 133a]
Selectivity ([1]; probe displacement HTRF): +++ (+++ indicate a value of at least 100)
Kd [1, 4]: < 10 nM
Kd ([2]; PARP2 probe displacement HTRF): 1000 to 10000 nM
IC50 [3, 5]: < 10 nM

CC(=O)Nc1ccc(N2CCC(N3CCC(c4nc5ccccc5c(=O)[nH]4)C3)CC2)cn1 (single isomer, unassigned) [Compound 262a]
Selectivity ([1]; probe displacement HTRF): − (− indicates a value of less than 10)
Kd [1, 6]: 1000 to 10000 nM
Kd ([2]; probe displacement HTRF): 1000 to 10000 nM
IC50 [3, 7]: 100 to 1000 nM

CNC(=O)c1ccc(N2CCC(N3CCCC(c4nc5c(F)cccc5c(=O)[nH]4)C3)CC2)cn1 (single isomer, unassigned) [Compound 114a]
Selectivity ([1]; probe displacement HTRF): +++ (+++ indicate a value of at least 100)
Kd [1, 4]: < 10 nM
Kd ([2]; PARP2 probe displacement HTRF): > 10000 nM
IC50 [3, 5]: < 10 nM

O=c1[nH]c(C2CCN(C3CCN(c4ccccc4)CC3)C2)nc2ccccc12 (single isomer, unassigned) [Compound 32a]
Selectivity ([1]; probe displacement HTRF): + (+ indicates a value of 10 to less than 50)
Kd [1, 4]: 10 to 100 nM
Kd ([2]; PARP2 probe displacement HTRF): 1000 to 10000 nM
IC50 [3, 5]: 10 to 100 nM

O=C(NCC(F)(F)F)c1ccc(N2CCC(N3CCC(c4nc5ccccc5c(=O)[nH]4)C3)CC2)cn1 (single isomer, unassigned) [Compound 130b]
Selectivity ([1]; probe displacement HTRF): +++ (+++ indicate a value of at least 100)
Kd [1, 4]: < 10 nM
Kd ([2]; PARP2 probe displacement HTRF): 100 to 1000 nM
IC50 [3, 5]: < 10 nM

CNC(=O)c1ccc(N2CCC(N3CCC(c4cc5c(F)cncc5c(=O)[nH]4)C3)CC2)cn1 (single isomer, unassigned) [Compound 331a]
Selectivity ([1]; probe displacement HTRF): +++ (+++ indicate a value of at least 100)
Kd [1, 6]: < 10 nM
Kd ([2]; probe displacement HTRF): 100 to 1000 nM
IC50 [3, 7]: < 10 nM

CCc1ccc(C2CCN(C3CCN(c4ccc(C#N)cn4)CC3)C2)[nH]c1=O (single isomer, unassigned) [Compound 332b]
Selectivity ([1]; probe displacement HTRF): +++ (+++ indicate a value of at least 100)
Kd [1, 6]: < 10 nM
Kd ([2]; probe displacement HTRF): 1000 to 10000 nM
IC50 [3, 7]: < 10 nM

CNC(=O)c1ccc(N2CC(N3CCCC(c4nc5ccccc5c(=O)[nH]4)C3)C2)cn1 (single isomer, unassigned) [Compound 23b]
Selectivity ([1]; probe displacement HTRF): − (− indicates a value of less than 10)
Kd [1, 4]: 1000 to 10000 nM
Kd ([2]; PARP2 probe displacement HTRF): > 10000 nM
IC50 [3, 5]: 1000 to 10000 nM

CNC(=O)c1ccc(N2CCC(N3CCCC(c4nc5cc(F)ccc5c(=O)[nH]4)C3)CC2)cn1 (single isomer, unassigned) [Compound 108a]
Selectivity ([1]; probe displacement HTRF): − (− indicates a value of less than 10)
Kd [1, 4]: 100 to 1000 nM
Kd ([2]; PARP2 probe displacement HTRF): > 10000 nM
IC50 [3, 5]: 100 to 1000 nM

CNC(=O)c1ccc(N2CCC(N3CCC(c4nc5c(c(=O)[nH]4)CCCN5)C3)CC2)cn1 (single isomer, unassigned) [Compound 214a]
Selectivity ([1]; probe displacement HTRF): ++ (++ indicates a value of 50 to less than 100)
Kd [1, 4]: 10 to 100 nM
Kd ([2]; PARP2 probe displacement HTRF): 100 to 1000 nM
IC50 [3, 5]: 10 to 100 nM

CCc1ccc(C2CCN(C3CCN(c4ccc(C(=O)NC)nc4C(F)F)CC3)C2)[nH]c1=O (single isomer, unassigned) [Compound 164a]
Selectivity ([1]; probe displacement HTRF): +++ (+++ indicate a value of at least 100)
Kd [1, 4]: < 10 nM
Kd ([2]; PARP2 probe displacement HTRF): 1000 to 10000 nM
IC50 [3, 5]: < 10 nM

CNC(=O)c1ccc(N2CCC(CN3CCC(c4nc5ccccc5c(=O)[nH]4)CC3)CC2)cn1 [Compound 8, N-methyl-5-(4-((4-(4-oxo-3,4-dihydroquinazolin-2-yl)piperidin-1-yl)methyl)piperidin-1-yl)picolinamide]
Kd [1, 8]: < 10 nM
Selectivity ([1]; probe displacement HTRF): +++ (+++ indicate a value of at least 100)
Kd ([2]; PARP2 probe displacement HTRF): > 10000 nM
IC50 [3, 5]: < 10 nM

N#Cc1ccc(N2CCC(N3CCC(c4nc5ccccc5c(=O)[nH]4)C3)CC2)cn1 (single isomer, unassigned) [Compound 69b]
Selectivity ([1]; probe displacement HTRF): − (− indicates a value of less than 10)
Kd [1, 4]: 10 to 100 nM
Kd ([2]; PARP2 probe displacement HTRF): 100 to 1000 nM
IC50 [3, 5]: 10 to 100 nM

CNC(=O)c1ccc(N2CCC(N3CCC(c4nc5cc(F)ccc5c(=O)[nH]4)C3)CC2)cn1 (single isomer, unassigned) [Compound 92a]
Selectivity ([1]; probe displacement HTRF): + (+ indicates a value of 10 to less than 50)
Kd [1, 4]: 100 to 1000 nM
Kd ([2]; PARP2 probe displacement HTRF): > 10000 nM
IC50 [3, 5]: 100 to 1000 nM

CNC(=O)c1ccc(N2CCC(N3CCC(c4nc5c(c(=O)[nH]4)CN(C)C5)C3)CC2)cn1 (racemic) [Compound 294rac]
Selectivity ([1]; probe displacement HTRF): − (− indicates a value of less than 10)
Kd [1, 6]: 100 to 1000 nM
Kd ([2]; probe displacement HTRF): > 10000 nM
IC50 [3, 7]: 100 to 1000 nM

CCc1nc(C(=O)NC)ccc1N1CCC(N2CCCC(c3nc4ccccc4c(=O)[nH]3)C2)CC1 (single isomer, unassigned) [Compound 112a]
Selectivity ([1]; probe displacement HTRF): − (− indicates a value of less than 10)
Kd [1, 4]: 100 to 1000 nM
Kd ([2]; PARP2 probe displacement HTRF): 1000 to 10000 nM
IC50 [3, 5]: 100 to 1000 nM

O=c1[nH]c(C2CCN(C3CCN(c4ccc(F)cc4F)CC3)C2)nc2ccccc12 (single isomer, unassigned) [Compound 107a]
Selectivity ([1]; probe displacement HTRF): + (+ indicates a value of 10 to less than 50)
Kd [1, 4]: 10 to 100 nM
Kd ([2]; PARP2 probe displacement HTRF): 1000 to 10000 nM
IC50 [3, 5]: 10 to 100 nM

O=c1[nH]c(C2CCN(C3CCN(c4ccc(OC(F)F)nc4)CC3)C2)cc2ccc(F)cc12 (single isomer, unassigned) [Compound 374b]
Selectivity ([1]; probe displacement HTRF): ++ (++ indicates a value of 50 to less than 100)
Kd [1, 6]: < 10 nM
Kd ([2]; probe displacement HTRF): 10 to 100 nM
IC50 [3, 7]: < 10 nM

CCc1ccc(C2CCN(C3CCN(c4ccc(C#N)cc4Cl)CC3)C2)[nH]c1=O (single isomer, unassigned) [Compound 377b]
Selectivity ([1]; probe displacement HTRF): +++ (+++ indicate a value of at least 100)
Kd [1, 6]: < 10 nM
Kd ([2]; probe displacement HTRF): 1000 to 10000 nM
IC50 [3, 7]: < 10 nM

CNC(=O)c1ccc(N2CCC(N3CCC(c4nc5c(c(=O)[nH]4)CCC5)C3)CC2)cn1 (single isomer, unassigned) [Compound 283a]
Selectivity ([1]; probe displacement HTRF): + (+ indicates a value of 10 to less than 50)
Kd [1, 6]: 100 to 1000 nM
Kd ([2]; probe displacement HTRF): > 10000 nM
IC50 [3, 7]: 100 to 1000 nM

CCc1cnc(C2CCCN(C3CCN(c4ccc(C(=O)NC)nc4)CC3)C2)[nH]c1=O (single isomer, unassigned) [Compound 31b]
Selectivity ([1]; probe displacement HTRF): +++ (+++ indicate a value of at least 100)
Kd [1, 4]: 10 to 100 nM
Kd ([2]; PARP2 probe displacement HTRF): > 10000 nM
IC50 [3, 5]: 10 to 100 nM

N#Cc1ccc(N2CCC(N3CCC(c4nc5ccccc5c(=O)[nH]4)C3)CC2)nc1 (single isomer, unassigned) [Compound 55a]
Selectivity ([1]; probe displacement HTRF): +++ (+++ indicate a value of at least 100)
Kd [1, 4]: < 10 nM
Kd ([2]; PARP2 probe displacement HTRF): 1000 to 10000 nM
IC50 [3, 5]: < 10 nM

CNC(=O)c1cnc(N2CCC(N3CCC(c4cc5ccccc5c(=O)[nH]4)C3)CC2)s1 (racemic) [Compound 253rac]
Selectivity ([1]; probe displacement HTRF): + (+ indicates a value of 10 to less than 50)
Kd [1, 6]: 10 to 100 nM
Kd ([2]; probe displacement HTRF): > 10000 nM
IC50 [3, 7]: 10 to 100 nM

CNC(=O)c1ccc(N2CCC(N3CCC(c4cc5cccc(F)c5c(=O)[nH]4)C3)CC2)cn1 (racemic) [Compound 136rac, 5-{4-[3-(8-fluoro-1-oxo-2H-isoquinolin-3-yl)pyrrolidin-1-yl]piperidin-1-yl}-N-methylpyridine-2-carboxamide]
Kd [1, 8]: < 10 nM
Selectivity ([1]; probe displacement HTRF): +++ (+++ indicate a value of at least 100)
Kd ([2]; PARP2 probe displacement HTRF): 10 to 100 nM
IC50 [3, 5]: < 10 nM

CNC(=O)c1ccc(OCCN2CCCC(c3nc4ccccc4c(=O)[nH]3)C2)cn1 (single isomer, unassigned) [Compound 65b]
Selectivity ([1]; probe displacement HTRF): + (+ indicates a value of 10 to less than 50)
Kd [1, 4]: 100 to 1000 nM
Kd ([2]; PARP2 probe displacement HTRF): 1000 to 10000 nM
IC50 [3, 5]: 100 to 1000 nM

CCc1ccc(C2CCN(C3CCN(c4ccc(C(=O)NC)nc4C(F)F)CC3)C2)[nH]c1=O (single isomer, unassigned) [Compound 164b]
Selectivity ([1]; probe displacement HTRF): +++ (+++ indicate a value of at least 100)
Kd [1, 4]: 10 to 100 nM
Kd ([2]; PARP2 probe displacement HTRF): > 10000 nM
IC50 [3, 5]: 10 to 100 nM

CNC(=O)c1ccc(N2CCC(N3CC(c4nc5ccccc5c(=O)[nH]4)C3)CC2)cn1 [Compound 27]
Kd [1, 8]: 10 to 100 nM
Selectivity ([1]; probe displacement HTRF): + (+ indicates a value of 10 to less than 50)
Kd ([2]; PARP2 probe displacement HTRF): 1000 to 10000 nM
IC50 [3, 5]: 10 to 100 nM

CNC(=O)c1ccc(N2CCC(N3CCCC(c4ncc(CC(F)(F)F)c(=O)[nH]4)C3)CC2)cn1 (single isomer, unassigned) [Compound 212a]
Selectivity ([1]; probe displacement HTRF): + (+ indicates a value of 10 to less than 50)
Kd [1, 4]: 100 to 1000 nM
Kd ([2]; PARP2 probe displacement HTRF): > 10000 nM
IC50 [3, 5]: 100 to 1000 nM
